The results in this text go back to patent US12551500B2, “C6′-substituted locked nucleic acid-modified cap analog and use thereof” (Hangzhou Tianlong Pharmaceutical Co., Ltd., priority 2024, dated 2026).

One data set deals with T1, DCP2 enzyme (Schizosaccharomyces pombe, UniProt O13828).
T1 construct: purchased New England Biolabs
T1 sequence (O13828 1-243 limits assumed): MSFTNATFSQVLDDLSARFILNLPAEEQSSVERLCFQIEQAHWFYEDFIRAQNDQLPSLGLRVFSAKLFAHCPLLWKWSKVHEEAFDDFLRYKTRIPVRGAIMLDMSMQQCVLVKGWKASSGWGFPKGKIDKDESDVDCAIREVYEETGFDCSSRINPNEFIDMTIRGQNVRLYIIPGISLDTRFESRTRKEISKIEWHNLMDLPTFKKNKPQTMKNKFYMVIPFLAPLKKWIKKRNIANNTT
T1 sequence (Q9P805 1-127 partner): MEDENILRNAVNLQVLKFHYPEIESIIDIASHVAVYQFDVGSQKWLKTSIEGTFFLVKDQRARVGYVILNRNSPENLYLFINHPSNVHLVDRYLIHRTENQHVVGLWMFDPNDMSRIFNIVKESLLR
T1 sequence (Q10108 155-180 partner limits assumed): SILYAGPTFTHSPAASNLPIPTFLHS
As to the kind of experiment: Decapping enzyme stability test. The data set is classed as biochemical. As to conditions: for Decapping rate (%) of DCP2 enzyme: 30 pmol RNA, 50 U mRNA decapping enzyme, 37° C., 45 minutes; for decapping rate lower than that of HN3002: difference to HN3002; for decapping rate lower than that of N-7413: difference to N-7413; for decapping rate lower than that of YK-CAP-001: difference to YK-CAP-001; for decapping rate lower than that of YK-CAP-002: difference to YK-CAP-002; for decapping rate lower than that of compound 14: difference to compound 14; for decapping rate lower than that of m6A: difference to m6A. As to the method:
30 pmol of RNAs purified by polyacrylamide gel electrophoresis (PAGE) was subjected to an enzymatic reaction with 50 U of mRNA decapping enzyme (New England Biolabs) and 1×MDE buffer at 37° C. for 45 minutes. The enzymatic reactants were subjected to PAGE and stained with SYBR Green II (Lonza), followed by observation of the post-electrophoresis gel image on a Typhoon FLA 7000 (GE Healthcare) instrument. The electrophoresis band intensity ratio of RNA capping to RNA decapping was counted using ImageQuant (GE Healthcare) software, and the decapping rate of the decapping enzyme was calculated (as shown in Table 6).

The next data set has as its system HEK293T cells. Put plainly: Translation efficiency of capped luciferase mRNAs. The data set is classed as cell-based. As to conditions: for relative fluorescence intensity, times that of HN3002: ratio to HN3002; for relative fluorescence intensity, times that of N-7413: ratio to N-7413; for relative fluorescence intensity, times that of YK-CAP-001: ratio to YK-CAP-001; for relative fluorescence intensity, times that of YK-CAP-002: ratio to YK-CAP-002; for relative fluorescence intensity, times that of m6A: ratio to m6A. Here is the method: (1) HEK293T cells were cultured in DMEM medium containing 10% FBS and penicillin/streptomycin at 37° C. with 5% CO2.
(2) Cells in the culture dish were digested and counted, then spread in a 96-well plate at 10,000 cells per well, and cultured overnight until the cells adhered to the wall.
(3) When the cell density reached approximately 80%, transfection was performed by adding 0.5 μg of mRNA sample and Lipofectamine MessengerMAX Transfection Reagent (Invitrogen) per well according to the manufacturer's instructions.
(4) After the transfected cells were cultured at 37° C. with 5% CO2 for 24 hours, the growth medium was removed from the cells to be tested, and the cells were rinsed with PBS. After centrifugation to remove PBS, 50 μL of 1× lysis buffer was added. The cells and all liquid were transferred to a microcentrifuge tube and centrifuged.
(5) 20 μL of sample was taken and added to 100 μL of Dual-Lumi™ II Luciferase Assay Reagent pre-equilibrated to room temperature, and mixed appropriately.
(6) The mixture was incubated at room temperature (approximately 25° C.) for 5 minutes to stabilize the luminescence signal. Chemiluminescence was detected using a multifunctional microplate reader with a function for detecting chemiluminescence, and the data were recorded.

Data set [1] can be described thus: Characterization of lipid nanoparticles encapsulating Fluc-mRNA. The data set is classed as physicochemical. The settings on record: for Particle size: LNP (YK-009/DSPC/cholesterol/DMG-PEG2000) encapsulating Fluc-mRNA transcribed using the cap analog; for PDI: LNP encapsulating Fluc-mRNA transcribed using the cap analog; for EE: encapsulation efficiency of LNP encapsulating Fluc-mRNA transcribed using the cap analog. Here is the method: Cationic lipid YK-009 (Beijing Youcare Kechuang Pharmaceutical Technology Co., Ltd.), DSPC (AVT (Shanghai) Pharmaceutical Technology Co., Ltd.), cholesterol (AVT (Shanghai) Pharmaceutical Technology Co., Ltd.), and DMG-PEG2000 were dissolved in ethanol at a molar ratio of 49:10:39.5:1.5, and the mRNA was diluted in 50 mM citrate buffer (pH=4). The ethanol lipid solution was mixed with the Fluc-mRNA aqueous solution prepared from different cap structures at a volume ratio of 1:3 using a microfluidic device at a flow rate of 10 mL/min to prepare LNPs at a weight ratio of total lipid to mRNA of approximately 15:1. The resulting liposomes were diluted to 10-fold volume with PBS, and then ultrafiltered with a 300 KDa ultrafiltration tube to remove ethanol. The volume was then fixed to a certain volume with PBS. Finally, the LNPs were filtered through a 0.2 μm sterile filter to obtain an LNP preparation encapsulating Fluc-mRNA using YK-009/DSPC/cholesterol/DMG-PEG2000 (at a molar ratio of 49:10:39.5:1.5).
The particle size and polydispersity index (PDI) were determined by dynamic light scattering using a Malvern laser particle size analyzer. 10 μL of the liposome solution was taken, diluted to 1 mL with RNase-free deionized water, and added to a sample pool. Each sample was measured in triplicate. The measurement conditions were: a scattering angle of 90° and a temperature of 25° C. The encapsulation efficiency of LNPs was determined using the Quant-iT RiboGreen RNA Quantification Kit (Thermo Fisher Scientific, UK) according to the manufacturer's instructions.

For a further data set, the target named is T7 RNA polymerase (Escherichia phage T7, UniProt P00573). As to the kind of experiment: In vitro transcription yield of mRNA with cap analog (co-transcriptional capping). As to conditions: for Yield per unit template: in vitro transcription, 1 μg DNA template, 20 μL system, 37° C. 2 hours; for transcription yield higher than that of compound 14: relative to compound 14. Type of data set: biochemical. As to the method:
(1) Capping synthesis using cap analogs
The plasmid was first linearized with plasmid linearizing enzyme, and then the linearized plasmid was purified.
(2) In vitro transcription and synthesis of mRNA
YK-CAP-001 to 006 and compound 14 in Table 1 were respectively used as cap analogs.
During the experiment, the volume of materials required for the system was first calculated, and then sample addition was conducted. The system was first added with sterile enzyme-free water, followed by the sequential addition of 10× buffer, NTPs, and cap analogs, mixed well, and gently centrifuged. Nuclease inhibitors, inorganic pyrophosphatase, T7 RNA polymerase, and linearized DNA templates were then added thereto. The system was mixed well, gently centrifuged, and incubated at 37° C. After 2 hours of incubation, the system was added with 1 U of DNase I and incubated at 37° C. for another 30 minutes. The mRNA precipitate was then washed with 75% ethanol, and after the ethanol was briefly evaporated to dryness, the mRNA was redissolved in sterile enzyme-free water.
(3) The transcription product was purified, and the in vitro transcription yield of mRNA was recorded.

T7 RNA polymerase, sequence (P00573 whole entry): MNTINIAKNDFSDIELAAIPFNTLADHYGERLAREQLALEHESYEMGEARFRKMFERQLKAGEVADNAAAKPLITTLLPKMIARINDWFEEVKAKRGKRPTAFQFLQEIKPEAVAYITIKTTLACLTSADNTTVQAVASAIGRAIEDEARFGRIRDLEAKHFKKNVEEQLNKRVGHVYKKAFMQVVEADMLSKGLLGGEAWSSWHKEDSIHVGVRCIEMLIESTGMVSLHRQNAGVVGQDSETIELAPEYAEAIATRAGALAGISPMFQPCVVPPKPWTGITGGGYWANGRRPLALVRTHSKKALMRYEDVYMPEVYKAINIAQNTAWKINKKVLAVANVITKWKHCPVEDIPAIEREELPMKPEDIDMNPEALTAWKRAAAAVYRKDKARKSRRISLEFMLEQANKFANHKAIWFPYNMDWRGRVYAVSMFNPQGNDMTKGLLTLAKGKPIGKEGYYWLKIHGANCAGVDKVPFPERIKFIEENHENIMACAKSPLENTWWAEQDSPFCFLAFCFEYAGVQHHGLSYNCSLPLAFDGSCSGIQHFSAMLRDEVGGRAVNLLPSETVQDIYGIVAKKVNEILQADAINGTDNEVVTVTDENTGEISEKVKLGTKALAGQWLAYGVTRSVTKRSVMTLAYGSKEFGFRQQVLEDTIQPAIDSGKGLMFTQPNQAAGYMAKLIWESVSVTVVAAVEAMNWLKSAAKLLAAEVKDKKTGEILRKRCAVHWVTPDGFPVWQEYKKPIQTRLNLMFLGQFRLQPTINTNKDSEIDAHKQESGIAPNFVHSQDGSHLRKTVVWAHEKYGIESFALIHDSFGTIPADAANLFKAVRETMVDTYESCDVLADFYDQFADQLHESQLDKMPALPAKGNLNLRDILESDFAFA

Take `COC1C(OP(=O)([O-])OC[C@H]2O[C@@H](n3cnc4c(=O)[nH]c(N)nc43)C(O)C2O)[C@@H](COP(=O)(O)OP(=O)(O)OP(=O)(O)OC[C@]23O[C@@H]([n+]4cn(C)c5c(=O)[nH]c(N)nc54)C(O[C@H]2CC(F)F)C3O)O[C@H]1n1cnc2c(N)ncnc21` (stereo partly shown) [YK-CAP-004]: at DCP2 enzyme, the “Decapping rate (%) of DCP2 enzyme” value was found to be 10.3%, the “decapping rate lower than that of HN3002” value was found to be 12.9%, the “decapping rate lower than that of N-7413” value is recorded as 38.3% and the “decapping rate lower than that of YK-CAP-001” value came to 16.0%. Moreover, at DCP2 enzyme, the “decapping rate lower than that of YK-CAP-002” value stood at 14.3%, the “decapping rate lower than that of compound 14” value amounted to 18.5% and the “decapping rate lower than that of m6A” value was determined as 17.2%. Further, in the data set with HEK293T cells, the “relative fluorescence intensity, times that of HN3002” value worked out at 1.2 times; the “relative fluorescence intensity, times that of N-7413” value was determined as 1.4 times; the “relative fluorescence intensity, times that of YK-CAP-001” value is 1.8 times; the “relative fluorescence intensity, times that of YK-CAP-002” value is 2.0 times. The “relative fluorescence intensity, times that of m6A” value in the data set on HEK293T cells came to 4.0 times. Besides, in data set [1], the Particle size stood at 89.39 nm, the PDI was 0.065 and the EE was found to be 93.7%. Also, at T7 RNA polymerase, the “Yield per unit template” value came out at 163.2 µg and the “transcription yield higher than that of compound 14” value stood at 35.0%. In addition, the “transcription yield higher than that of YK-CAP-001” value on T7 RNA polymerase (relative to YK-CAP-001) was 82.8%. Moreover, the “transcription yield higher than that of YK-CAP-002” value at T7 RNA polymerase (relative to YK-CAP-002) came out at 58.3%.
Turning to `COC1C(OP(=O)([O-])OC[C@H]2O[C@@H](n3cnc4c(=O)[nH]c(N)nc43)C(O)C2O)[C@@H](COP(=O)(O)OP(=O)(O)OP(=O)(O)OC[C@]23O[C@@H]([n+]4cn(C)c5c(=O)[nH]c(N)nc54)C(O[C@H]2CC(=O)N(C)C)C3O)O[C@H]1n1cnc2c(N)ncnc21` (stereo partly shown) [YK-CAP-003], on DCP2 enzyme, the “Decapping rate (%) of DCP2 enzyme” value came out at 11.8%, the “decapping rate lower than that of HN3002” value was determined as 11.4%, the “decapping rate lower than that of N-7413” value was 36.8% and the “decapping rate lower than that of YK-CAP-001” value came out at 14.5%. For the same compound, on DCP2 enzyme, the “decapping rate lower than that of YK-CAP-002” value amounted to 12.8%, the “decapping rate lower than that of compound 14” value came out at 17.0% and the “decapping rate lower than that of m6A” value came out at 15.7%. In the data set with HEK293T cells, the “relative fluorescence intensity, times that of HN3002” value is listed as 1.1 times; the “relative fluorescence intensity, times that of N-7413” value came out at 1.2 times; the “relative fluorescence intensity, times that of YK-CAP-001” value is listed as 1.6 times; the “relative fluorescence intensity, times that of YK-CAP-002” value came to 1.8 times. In addition, the “relative fluorescence intensity, times that of m6A” value in the data set with HEK293T cells is listed as 3.5 times. In data set [1], this compound gave a Particle size of 82.83 nm, a PDI of 0.032 and an EE of 95.6%. For the same compound, on T7 RNA polymerase, the “Yield per unit template” value is 151.0 µg and the “transcription yield higher than that of compound 14” value stood at 24.9%.
Take `COC1C(OP(=O)([O-])OC[C@H]2O[C@@H](n3cnc4c(=O)[nH]c(N)nc43)C(O)C2O)[C@@H](COP(=O)(O)OP(=O)(O)OP(=O)(O)OC[C@]23O[C@@H]([n+]4cn(C)c5c(=O)[nH]c(N)nc54)C(O[C@H]2CCS(=O)(=O)N(C)C)C3O)O[C@H]1n1cnc2c(N)ncnc21` (stereo partly shown) [YK-CAP-006]: on DCP2 enzyme, the “Decapping rate (%) of DCP2 enzyme” value came out at 11.2%, the “decapping rate lower than that of HN3002” value amounted to 12.0%, the “decapping rate lower than that of N-7413” value is 37.4% and the “decapping rate lower than that of YK-CAP-001” value is given as 15.1%. In addition, at DCP2 enzyme, the “decapping rate lower than that of YK-CAP-002” value came to 13.4%, the “decapping rate lower than that of compound 14” value stood at 17.6% and the “decapping rate lower than that of m6A” value was 16.3%. Moreover, in the data set with HEK293T cells, the “relative fluorescence intensity, times that of HN3002” value came out at 1.2 times; the “relative fluorescence intensity, times that of N-7413” value stood at 1.3 times; the “relative fluorescence intensity, times that of YK-CAP-001” value worked out at 1.7 times; the “relative fluorescence intensity, times that of YK-CAP-002” value turned out to be 1.9 times. Moreover, the “relative fluorescence intensity, times that of m6A” value in the data set with HEK293T cells amounted to 3.7 times. In data set [1], this compound displayed a Particle size of 96.64 nm, a PDI of 0.029 and an EE of 96.3%. On T7 RNA polymerase, the “Yield per unit template” value stood at 153.1 µg and the “transcription yield higher than that of compound 14” value turned out to be 26.6%.
Regarding `COC1C(OP(=O)([O-])OC[C@H]2O[C@@H](n3cnc4c(=O)[nH]c(N)nc43)C(O)C2O)[C@@H](COP(=O)(O)OP(=O)(O)OP(=O)(O)OC[C@]23O[C@@H]([n+]4cn(C)c5c(=O)[nH]c(N)nc54)C(O[C@H]2CCS(C)(=O)=O)C3O)O[C@H]1n1cnc2c(N)ncnc21` (stereo partly shown) [YK-CAP-005], at DCP2 enzyme, the “Decapping rate (%) of DCP2 enzyme” value worked out at 12.8%, the “decapping rate lower than that of HN3002” value came to 10.4%, the “decapping rate lower than that of N-7413” value is reported as 35.8% and the “decapping rate lower than that of YK-CAP-001” value is 13.5%. Further, on DCP2 enzyme, the “decapping rate lower than that of YK-CAP-002” value came to 11.8%, the “decapping rate lower than that of compound 14” value is listed as 16.0% and the “decapping rate lower than that of m6A” value amounted to 14.7%. Also, in the data set with HEK293T cells, the “relative fluorescence intensity, times that of HN3002” value is 1.1 times; the “relative fluorescence intensity, times that of N-7413” value came out at 1.3 times; the “relative fluorescence intensity, times that of YK-CAP-001” value was determined as 1.6 times; the “relative fluorescence intensity, times that of YK-CAP-002” value was determined as 1.9 times. For the same compound, the “relative fluorescence intensity, times that of m6A” value in the data set on HEK293T cells came out at 3.7 times. In data set [1], this compound gave a Particle size of 87.01 nm, a PDI of 0.064 and an EE of 94.5%. In addition, on T7 RNA polymerase, the “Yield per unit template” value was 152.6 µg and the “transcription yield higher than that of compound 14” value is 26.2%.
